Patent publication US20020026053A1, “Novel 3-(substituted) -2- indolinones compounds and use thereof as inhibitors of protein kinase activity” (priority 1997, published 2002)

Target: T1, Met receptor (EGFR/Met chimeric cells, EMR) (Homo sapiens, UniProt P08581)
T1 construct: expressed in transfected cells; the other entry of the earlier key: EGFR (P00533, Epidermal growth factor receptor)
Test: Met Autophosphorylation Assay
Format: biochemical
Details: protocol P.130
Summary of the method: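 Met phosphorylation was measured by capture ELISA. Lysates (90 μg/100 μl, HNTG plus 1 mM PMSF) from transiently transfected EGFR/Met chimera (EMR) cells were bound for 60 min at room temperature to wells holding rabbit anti-Met (C-28) on goat anti-rabbit coat. Phosphotyrosine was the read-out.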

T1 sequence (P08581 with tags, fused parts or gaps): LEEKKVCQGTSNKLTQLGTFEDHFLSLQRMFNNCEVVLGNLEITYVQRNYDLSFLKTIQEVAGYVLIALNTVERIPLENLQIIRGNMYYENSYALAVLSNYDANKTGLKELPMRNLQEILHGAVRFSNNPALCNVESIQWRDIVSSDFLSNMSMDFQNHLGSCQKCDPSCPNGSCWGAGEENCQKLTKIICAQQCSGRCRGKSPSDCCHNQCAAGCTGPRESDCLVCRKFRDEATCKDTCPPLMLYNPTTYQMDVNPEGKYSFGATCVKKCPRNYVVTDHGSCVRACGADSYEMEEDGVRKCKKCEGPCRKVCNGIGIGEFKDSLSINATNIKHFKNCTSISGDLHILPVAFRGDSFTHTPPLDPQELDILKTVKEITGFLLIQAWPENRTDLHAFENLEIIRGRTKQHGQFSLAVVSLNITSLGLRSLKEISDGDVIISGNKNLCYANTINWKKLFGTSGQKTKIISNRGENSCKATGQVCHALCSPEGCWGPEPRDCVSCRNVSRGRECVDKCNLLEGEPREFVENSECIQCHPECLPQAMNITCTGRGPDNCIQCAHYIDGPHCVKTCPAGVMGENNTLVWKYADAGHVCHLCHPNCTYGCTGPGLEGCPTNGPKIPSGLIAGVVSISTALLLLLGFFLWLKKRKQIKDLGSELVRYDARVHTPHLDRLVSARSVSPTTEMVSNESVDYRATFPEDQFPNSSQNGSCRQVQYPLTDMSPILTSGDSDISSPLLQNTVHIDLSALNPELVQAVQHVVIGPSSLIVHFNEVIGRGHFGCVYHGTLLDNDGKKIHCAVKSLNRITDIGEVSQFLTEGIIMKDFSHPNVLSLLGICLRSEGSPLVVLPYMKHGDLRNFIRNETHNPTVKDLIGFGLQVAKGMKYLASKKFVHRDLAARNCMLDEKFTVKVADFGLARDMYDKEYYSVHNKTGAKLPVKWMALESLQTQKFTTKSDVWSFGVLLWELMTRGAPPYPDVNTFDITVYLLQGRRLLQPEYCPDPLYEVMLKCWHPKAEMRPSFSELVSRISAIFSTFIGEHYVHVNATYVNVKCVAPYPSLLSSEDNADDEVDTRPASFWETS

Structure (SMILES)	Met Kinase % Inhibition (P.130) [%]
Cc1c(Br)ccc2c1C(=Cc1ccc(C(C)C)cc1)C(=O)N2 [10738/C10]	3.2
CCCOc1ccc(C=C2C(=O)Nc3ccc(Br)c(C)c32)cc1 [10738/C11]	12.0
CNS(=O)(=O)c1ccc2c(c1)C(=Cc1cccc(Oc3ccc(C)cc3)c1)C(=O)N2 [10738/D02]	15.6
CNS(=O)(=O)c1ccc2c(c1)C(=Cc1cccc(Oc3ccc(Cl)c(Cl)c3)c1)C(=O)N2 [10738/D03]	16.0
CNS(=O)(=O)c1ccc2c(c1)C(=Cc1ccc(OC)c(O)c1)C(=O)N2 [10738/D04]	32.2
CNS(=O)(=O)c1ccc2c(c1)C(=Cc1cc(O)ccc1[N+](=O)[O-])C(=O)N2 [10738/D05]	42.4
CNS(=O)(=O)c1ccc2c(c1)C(=Cc1cccc(O)c1O)C(=O)N2 [10738/D06]	96.0
CNS(=O)(=O)c1ccc2c(c1)C(=Cc1cc(O)cc(O)c1)C(=O)N2 [10738/D07]	68.3
CNS(=O)(=O)c1ccc2c(c1)C(=Cc1ccc(Cl)c(Cl)c1)C(=O)N2 [10738/D08]	37.7
CNS(=O)(=O)c1ccc2c(c1)C(=Cc1ccccc1OC)C(=O)N2 [10738/D09]	22.7
CNS(=O)(=O)c1ccc2c(c1)C(=Cc1ccc(C(C)C)cc1)C(=O)N2 [10738/D10]	25.3
CCCOc1ccc(C=C2C(=O)Nc3ccc(S(=O)(=O)NC)cc32)cc1 [10738/D11]	4.3
Cc1ccc(Oc2cccc(C=C3C(=O)Nc4ccc(S(=O)(=O)Nc5ccc(C(F)(F)F)cc5)cc43)c2)cc1 [10738/E02]	3.8
O=C1Nc2ccc(S(=O)(=O)Nc3ccc(C(F)(F)F)cc3)cc2C1=Cc1cccc(Oc2ccc(Cl)c(Cl)c2)c1 [10738/E03]	21.1
COc1ccc(C=C2C(=O)Nc3ccc(S(=O)(=O)Nc4ccc(C(F)(F)F)cc4)cc32)cc1O [10738/E04]	64.1
O=C1Nc2ccc(S(=O)(=O)Nc3ccc(C(F)(F)F)cc3)cc2C1=Cc1cc(O)ccc1[N+](=O)[O-] [10738/E05]	61.0
O=C1Nc2ccc(S(=O)(=O)Nc3ccc(C(F)(F)F)cc3)cc2C1=Cc1cccc(O)c1O [10738/E06]	92.4
O=C1Nc2ccc(S(=O)(=O)Nc3ccc(C(F)(F)F)cc3)cc2C1=Cc1cc(O)cc(O)c1 [10738/E07]	89.3
O=C1Nc2ccc(S(=O)(=O)Nc3ccc(C(F)(F)F)cc3)cc2C1=Cc1ccc(Cl)c(Cl)c1 [10738/E08]	52.6
COc1ccccc1C=C1C(=O)Nc2ccc(S(=O)(=O)Nc3ccc(C(F)(F)F)cc3)cc21 [10738/E09]	18.0
CC(C)c1ccc(C=C2C(=O)Nc3ccc(S(=O)(=O)Nc4ccc(C(F)(F)F)cc4)cc32)cc1 [10738/E10]	5.8
CCCOc1ccc(C=C2C(=O)Nc3ccc(S(=O)(=O)Nc4ccc(C(F)(F)F)cc4)cc32)cc1 [10738/E11]	11.8
Cc1ccc(Oc2cccc(C=C3C(=O)Nc4ccc(S(=O)(=O)N5CCOCC5)cc43)c2)cc1 [10738/F02]	66.1
O=C1Nc2ccc(S(=O)(=O)N3CCOCC3)cc2C1=Cc1cccc(Oc2ccc(Cl)c(Cl)c2)c1 [10738/F03]	20.0

Structure (SMILES)	Met Kinase % Inhibition (P.130) [%]
COc1ccc(C=C2C(=O)Nc3ccc(S(=O)(=O)N4CCOCC4)cc32)cc1O [10738/F04]	61.4
O=C1Nc2ccc(S(=O)(=O)N3CCOCC3)cc2C1=Cc1cc(O)ccc1[N+](=O)[O-] [10738/F05]	33.5
O=C1Nc2ccc(S(=O)(=O)N3CCOCC3)cc2C1=Cc1cccc(O)c1O [10738/F06]	86.7
O=C1Nc2ccc(S(=O)(=O)N3CCOCC3)cc2C1=Cc1cc(O)cc(O)c1 [10738/F07]	52.3
O=C1Nc2ccc(S(=O)(=O)N3CCOCC3)cc2C1=Cc1ccc(Cl)c(Cl)c1 [10738/F08]	60.5
COc1ccccc1C=C1C(=O)Nc2ccc(S(=O)(=O)N3CCOCC3)cc21 [10738/F09]	28.9
CC(C)c1ccc(C=C2C(=O)Nc3ccc(S(=O)(=O)N4CCOCC4)cc32)cc1 [10738/F10]	47.9
CCCOc1ccc(C=C2C(=O)Nc3ccc(S(=O)(=O)N4CCOCC4)cc32)cc1 [10738/F11]	52.6
Cc1ccc(Oc2cccc(C=C3C(=O)Nc4ccc(CCCl)cc43)c2)cc1 [10738/G02]	16.9
O=C1Nc2ccc(CCCl)cc2C1=Cc1cccc(Oc2ccc(Cl)c(Cl)c2)c1 [10738/G03]	32.8
COc1ccc(C=C2C(=O)Nc3ccc(CCCl)cc32)cc1O [10738/G04]	42.6
O=C1Nc2ccc(CCCl)cc2C1=Cc1cc(O)ccc1[N+](=O)[O-] [10738/G05]	27.3
O=C1Nc2ccc(CCCl)cc2C1=Cc1cccc(O)c1O [10738/G06]	86.5
O=C1Nc2ccc(CCCl)cc2C1=Cc1cc(O)cc(O)c1 [10738/G07]	40.4
O=C1Nc2ccc(CCCl)cc2C1=Cc1ccc(Cl)c(Cl)c1 [10738/G08]	36.8
COc1ccccc1C=C1C(=O)Nc2ccc(CCCl)cc21 [10738/G09]	16.9
CC(C)c1ccc(C=C2C(=O)Nc3ccc(CCCl)cc32)cc1 [10738/G10]	12.5
CCCOc1ccc(C=C2C(=O)Nc3ccc(CCCl)cc32)cc1 [10738/G11]	22.2
Cc1ccc(Oc2cccc(C=C3C(=O)Nc4c(Br)cc(Br)c(C)c43)c2)cc1 [10738/H02]	35.3
Cc1c(Br)cc(Br)c2c1C(=Cc1cccc(Oc3ccc(Cl)c(Cl)c3)c1)C(=O)N2 [10738/H03]	29.5
COc1ccc(C=C2C(=O)Nc3c(Br)cc(Br)c(C)c32)cc1O [10738/H04]	72.9
Cc1c(Br)cc(Br)c2c1C(=Cc1cc(O)ccc1[N+](=O)[O-])C(=O)N2 [10738/H05]	73.6
Cc1c(Br)cc(Br)c2c1C(=Cc1cccc(O)c1O)C(=O)N2 [10738/H06]	93.8
